Results on 2 molecules are retold here after patent US4436925A, “Addition compound of dipeptide derivative and amino acid derivative” (Toyo Soda Manufacturing Co., Ltd., priority 1977, dated 1984).

Series [1] is described as follows: Solubility in water or diluted hydrochloric acid.
For series [2] the following is noted: times of that of sugar; cited from earlier work.

The structures appear in SMILES notation. Where a SMILES comes first, the peptide text is derived from it.

On to `COC(=O)[C@H](Cc1ccccc1)NC(=O)[C@H](CC(=O)O)NC(=O)OCc1ccccc1`, for which the solubility was 0.017 g/100 g diluted hydrochloric acid (10^-2 M) in series [1] (in diluted hydrochloric acid (10^-2 M) at 25° C.) and 0.028 g/100 g water in series [1] (in water at 25° C.).
As to `COC(=O)[C@H](Cc1ccccc1)NC(=O)[C@@H](N)CC(=O)O` [α-L-Aspartyl-L-phenylalanine methyl ester] (H-Asp-Phe-OMe), the “sweetness relative to sugar” value in series [2] is given as “about 200 times”.
